Data taken from US11919901B2 (Syndax Pharmaceuticals, Inc., priority 2021, dated 2024).

Biological target: Menin-MLL (Homo sapiens (Human), UniProt O00255)
Assay: Determination of binding constants (Ki) to Menin-MLL (HTRF)
Conditions: HTRF, 0.25 nM H-FL-Menin, 3.2 nM FITC-MLL-4-43, 24 hr incubation; for Ki: read-out: Menin-MLL Ki HTRF Assay: Ki

Chain of Menin-MLL (O00255 whole entry): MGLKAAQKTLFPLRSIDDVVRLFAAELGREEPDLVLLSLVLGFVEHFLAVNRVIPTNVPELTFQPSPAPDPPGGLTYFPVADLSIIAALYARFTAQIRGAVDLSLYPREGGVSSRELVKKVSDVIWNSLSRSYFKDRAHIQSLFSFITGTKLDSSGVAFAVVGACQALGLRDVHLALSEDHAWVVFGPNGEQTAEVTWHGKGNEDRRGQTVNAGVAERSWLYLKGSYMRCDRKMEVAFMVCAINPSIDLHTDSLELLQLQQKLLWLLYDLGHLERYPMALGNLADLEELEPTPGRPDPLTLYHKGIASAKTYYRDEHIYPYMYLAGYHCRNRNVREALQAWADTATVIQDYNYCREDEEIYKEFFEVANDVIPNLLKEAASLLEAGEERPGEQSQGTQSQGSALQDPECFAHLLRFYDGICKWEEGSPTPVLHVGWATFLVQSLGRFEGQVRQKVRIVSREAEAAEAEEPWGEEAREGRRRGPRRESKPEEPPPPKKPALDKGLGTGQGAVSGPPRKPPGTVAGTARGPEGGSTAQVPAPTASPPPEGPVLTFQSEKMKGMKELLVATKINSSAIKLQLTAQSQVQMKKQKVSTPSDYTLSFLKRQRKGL

Structure (SMILES) | Ki | EC50
CC(C)N(C(=O)c1cc(F)ccc1Oc1cncnc1N1CC2(CCN(C[C@@H]3CC[C@@H](NS(=N)(=O)c4ccccc4)CO3)CC2)C1)C(C)C (mixture of isomers) [Compound 228, 5-Fluoro-N,N-diisopropyl-2-((4-(7-(((2S,5R)-5-(phenylsulfonoamidimidamido)tetrahydro-2H-pyran-2-yl)methyl)-2,7-diazaspiro[3.5]nonan-2-yl)pyrimidin-5-yl)oxy)benzamide] | < 1 nM | –
CC[S@@](=N)(=O)N[C@@H]1CC[C@@H](CN2CCC3(CC2)CN(c2ncncc2Oc2ccc(F)cc2C(=O)N(C(C)C)C(C)C)C3)OC1 (single isomer, unassigned) [Compound 226] | < 1 nM | –
CC[S@](=N)(=O)N[C@@H]1CC[C@@H](CN2CCC3(CC2)CN(c2ncncc2Oc2ccc(F)cc2C(=O)N(C(C)C)C(C)C)C3)OC1 (single isomer, unassigned) [Compound 227] | < 1 nM | –
CC(C)N(C(=O)c1cc(F)ccc1Oc1cncnc1N1CC2(CCN(C[C@@H]3CC[C@@H](N[S@@](=N)(=O)c4ccccc4)CO3)CC2)C1)C(C)C (single isomer, unassigned) [Compound 229] | < 1 nM | –
CC(C)N(C(=O)c1cc(F)ccc1Oc1cncnc1N1CC2(CCN(C[C@@H]3CC[C@@H](N[S@](=N)(=O)c4ccccc4)CO3)CC2)C1)C(C)C (single isomer, unassigned) [Compound 230] | < 1 nM | –
CCS(=O)(=O)N[C@@H]1CC[C@@H](CN2CCC3(CC2)CN(c2ncncc2Oc2ccc(F)cc2C(=O)N(C(C)C)[C@@H]2CC[C@H]2O)C3)OC1 (single isomer, unassigned) [Compound 256] | < 1 nM | < 50 nM
CCS(=O)(=O)N[C@@H]1CC[C@@H](CN2CCC3(CC2)CN(c2ncncc2Oc2ccc(F)cc2C(=O)N(C(C)C)[C@H]2CC[C@@H]2O)C3)OC1 (single isomer, unassigned) [Compound 257] | < 1 nM | < 50 nM
CCN(C(=O)c1cc(F)ccc1Oc1cncnc1N1CC2(CCN(C[C@H]3CC[C@H](NS(=O)(=O)CC)CO3)CC2)C1)C(C)C (stereo in doubt) [Compound 52, N-ethyl-2-((4-(7-(((2R,5S)-5-(ethylsulfonamido)tetrahydro-2H-pyran-2-yl)methyl)-2,7-diazaspiro[3.5]nonan-2-yl)pyrimidin-5-yl)oxy)-5-fluoro-N-isopropylbenzamide] | – | < 50 nM
CNS(=O)(=O)N[C@H]1CC[C@H](CN2CCC3(CC2)CN(c2ncncc2Oc2ccc(F)cc2C(=O)N(C(C)C)C2CC2)C3)OC1 (stereo in doubt) [Compound 146, N-Cyclopropyl-5-fluoro-N-isopropyl-2-((4-(7-(((2R,5S)-5-((N-methylsulfamoyl)amino)tetrahydro-2H-pyran-2-yl)methyl)-2,7-diazaspiro[3.5]nonan-2-yl)pyrimidin-5-yl)oxy)benzamide] | < 1 nM | –
CC(C)N(CC(F)(F)F)C(=O)c1cc(F)ccc1Oc1nncnc1N1CC2(CCN(C[C@H]3CC[C@H](NS(=O)(=O)N4CCC4)CO3)CC2)C1 (stereo in doubt) [Compound 194, 2-((5-(7-(((2R,5S)-5-(Azetidine-1-sulfonamido)tetrahydro-2H-pyran-2-yl)methyl)-2,7-diazaspiro[3.5]nonan-2-yl)-1,2,4-triazin-6-yl)oxy)-5-fluoro-N-isopropyl-N-(2,2,2-trifluoroethyl)benzamide] | < 1 nM | –
CCN(C(=O)c1cc(F)ccc1Oc1cncnc1N1CC2(CCN(C[C@@H]3CC[C@@H](NS(=O)(=O)C(C)C)CO3)CC2)C1)C(C)C [Compound 3, N-ethyl-5-fluoro-N-isopropyl-2-((4-(7-(((2S,5R)-5-((1-methylethyl)sulfonamido)tetrahydro-2H-pyran-2-yl)methyl)-2,7-diazaspiro[3.5]nonan-2-yl)pyrimidin-5-yl)oxy)benzamide] | < 1 nM | < 50 nM
CCN(C(=O)c1cc(F)ccc1Oc1cncnc1N1CC2(CCN(C[C@@H]3CC[C@@H](NS(=O)(=O)C4COC4)CO3)CC2)C1)C(C)C [Compound 5, N-ethyl-5-fluoro-N-isopropyl-2-((4-(7-(((2S,5R)-5-(oxetane-3-sulfonamido)tetrahydro-2H-pyran-2-yl)methyl)-2,7-diazaspiro[3.5]nonan-2-yl)pyrimidin-5-yl)oxy)benzamide] | < 1 nM | < 50 nM
CCN(C(=O)c1cc(F)ccc1Oc1cncnc1N1CC2(CCN(C[C@@H]3CC[C@@H](NS(=O)(=O)CC4CC4)CO3)CC2)C1)C(C)C [Compound 7, 2-((4-(7-(((2S,5R)-5-((cyclopropylmethyl)sulfonamido)tetrahydro-2H-pyran-2-yl)methyl)-2,7-diazaspiro[3.5]nonan-2-yl)pyrimidin-5-yl)oxy)-N-ethyl-5-fluoro-N-isopropylbenzamide] | < 1 nM | < 50 nM
CCN(C(=O)c1cc(F)ccc1Oc1cncnc1N1CC2(CCN(C[C@@H]3CC[C@@H](NS(=O)(=O)CCOC)CO3)CC2)C1)C(C)C [Compound 8, N-ethyl-5-fluoro-N-isopropyl-2-((4-(7-(((2S,5R)-5-((2-methoxyethyl)sulfonamido)tetrahydro-2H-pyran-2-yl)methyl)-2,7-diazaspiro[3.5]nonan-2-yl)pyrimidin-5-yl)oxy)benzamide] | < 1 nM | < 50 nM
CCCS(=O)(=O)N[C@@H]1CC[C@@H](CN2CCC3(CC2)CN(c2ncncc2Oc2ccc(F)cc2C(=O)N(CC)C(C)C)C3)OC1 [Compound 9, N-ethyl-5-fluoro-N-isopropyl-2-((4-(7-(((2S,5R)-5-(propylsulfonamido)tetrahydro-2H-pyran-2-yl)methyl)-2,7-diazaspiro[3.5]nonan-2-yl)pyrimidin-5-yl)oxy)benzamide] | < 1 nM | < 50 nM
CCN(C(=O)c1cc(F)ccc1Oc1cncnc1N1CC2(CCN(C[C@@H]3CC[C@@H](NS(=O)(=O)C4CCOC4)CO3)CC2)C1)C(C)C (stereo partly drawn) [Compound 10, N-ethyl-5-fluoro-N-isopropyl-2-((4-(7-(((2S,5R)-5-((tetrahydrofuran)-3-sulfonamido)tetrahydro-2H-pyran-2-yl)methyl)-2,7-diazaspiro[3.5]nonan-2-yl)pyrimidin-5-yl)oxy)benzamide] | < 1 nM | < 50 nM
CC(C)N(C(=O)c1cc(F)ccc1Oc1cncnc1N1CC2(CCN(C[C@@H]3CC[C@@H](NC(=O)OC(C)(C)C)CO3)CC2)C1)C1CC1 [Compound 17, tert-butyl ((3R,6S)-6-((2-(5-(2-(cyclopropyl(isopropyl)carbamoyl)-4-fluorophenoxy)pyrimidin-4-yl)-2,7-diazaspiro[3.5]nonan-7-yl)methyl)tetrahydro-2H-pyran-3-yl)carbamate] | < 1 nM | < 50 nM
CC(C)N(C(=O)c1cc(F)ccc1Oc1cncnc1N1CC2(CCN(C[C@@H]3CC[C@@H](NS(C)(=O)=O)CO3)CC2)C1)C1CC1 [Compound 18, N-cyclopropyl-5-fluoro-N-isopropyl-2-((4-(7-(((2S,5R)-5-(methylsulfonamido)tetrahydro-2H-pyran-2-yl)methyl)-2,7-diazaspiro[3.5]nonan-2-yl)pyrimidin-5-yl)oxy)benzamide] | < 1 nM | < 50 nM
CC(C)N(C(=O)c1cc(F)ccc1Oc1cncnc1N1CC2(CCN(C[C@@H]3CC[C@@H](NS(=O)(=O)C(C)C)CO3)CC2)C1)C1CC1 [Compound 20, N-cyclopropyl-5-fluoro-N-isopropyl-2-((4-(7-(((2S,5R)-5-((1-methylethyl)sulfonamido)tetrahydro-2H-pyran-2-yl)methyl)-2,7-diazaspiro[3.5]nonan-2-yl)pyrimidin-5-yl)oxy)benzamide] | < 1 nM | < 50 nM
CC(C)N(C(=O)c1cc(F)ccc1Oc1cncnc1N1CC2(CCN(C[C@@H]3CC[C@@H](NS(=O)(=O)C4COC4)CO3)CC2)C1)C1CC1 [Compound 22, N-cyclopropyl-5-fluoro-N-isopropyl-2-((4-(7-(((2S,5R)-5-(oxetane-3-sulfonamido)tetrahydro-2H-pyran-2-yl)methyl)-2,7-diazaspiro[3.5]nonan-2-yl)pyrimidin-5-yl)oxy)benzamide] | < 1 nM | < 50 nM
C[C@@H]1COC[C@H](C)N1C(=O)c1cc(F)ccc1Oc1cncnc1N1CC2(CCN(C[C@@H]3CC[C@@H](NS(C)(=O)=O)CO3)CC2)C1 [Compound 23, N-((3R,6S)-6-((2-(5-(2-((3S,5R)-3,5-dimethylmorpholine-4-carbonyl)-4-fluorophenoxy)pyrimidin-4-yl)-2,7-diazaspiro[3.5]nonan-7-yl)methyl)tetrahydro-2H-pyran-3-yl)methanesulfonamide] | < 1 nM | < 50 nM
CCS(=O)(=O)N[C@@H]1CC[C@@H](CN2CCC3(CC2)CN(c2ncncc2Oc2ccc(F)cc2C(=O)N2[C@H](C)COC[C@@H]2C)C3)OC1 [Compound 24, N-((3R,6S)-6-((2-(5-(2-((3S,5R)-3,5-dimethylmorpholine-4-carbonyl)-4-fluorophenoxy)pyrimidin-4-yl)-2,7-diazaspiro[3.5]nonan-7-yl)methyl)tetrahydro-2H-pyran-3-yl)ethanesulfonamide] | < 1 nM | < 50 nM
CC(C)S(=O)(=O)N[C@@H]1CC[C@@H](CN2CCC3(CC2)CN(c2ncncc2Oc2ccc(F)cc2C(=O)N2[C@H](C)COC[C@@H]2C)C3)OC1 [Compound 25, N-((3R,6S)-6-((2-(5-(2-((3S,5R)-3,5-dimethylmorpholine-4-carbonyl)-4-fluorophenoxy)pyrimidin-4-yl)-2,7-diazaspiro[3.5]nonan-7-yl)methyl)tetrahydro-2H-pyran-3-yl)propane-2-sulfonamide] | < 1 nM | < 50 nM
C[C@@H]1COC[C@H](C)N1C(=O)c1cc(F)ccc1Oc1cncnc1N1CC2(CCN(C[C@@H]3CC[C@@H](NS(=O)(=O)C4CC4)CO3)CC2)C1 [Compound 26, N-((3R,6S)-6-((2-(5-(2-((3S,5R)-3,5-dimethylmorpholine-4-carbonyl)-4-fluorophenoxy)pyrimidin-4-yl)-2,7-diazaspiro[3.5]nonan-7-yl)methyl)tetrahydro-2H-pyran-3-yl)cyclopropanesulfonamide] | < 1 nM | < 50 nM
